{"source": "ChEMBL document CHEMBL1201861", "about": "“Genomics of Drug Sensitity in Cancer screening data, Wellcome Trust Sanger Institute”", "assay_in_all_cases": "cells", "key": {"T84": {"test_system": "T84", "type": "functional, cell-based, Homo sapiens", "conditions": "Homo sapiens, T84", "description": "SANGER: Inhibition of human T84 cell growth in a cell viability assay."}, "HCC1187": {"test_system": "HCC1187", "type": "functional, cell-based, Homo sapiens", "conditions": "Homo sapiens, HCC1187", "description": "SANGER: Inhibition of human HCC1187 cell growth in a cell viability assay."}, "RPMI-7951": {"test_system": "RPMI-7951", "type": "functional, cell-based, Homo sapiens", "conditions": "Homo sapiens, RPMI-7951", "description": "SANGER: Inhibition of human RPMI-7951 cell growth in a cell viability assay."}, "AU565": {"test_system": "AU565", "type": "functional, cell-based, Homo sapiens", "conditions": "Homo sapiens, AU565", "description": "SANGER: Inhibition of human AU565 cell growth in a cell viability assay."}, "RO82-W-1": {"test_system": "RO82-W-1", "type": "functional, cell-based, Homo sapiens", "conditions": "Homo sapiens, RO82-W-1", "description": "SANGER: Inhibition of human RO82-W-1 cell growth in a cell viability assay."}, "LK-2": {"test_system": "LK-2", "type": "functional, cell-based, Homo sapiens", "conditions": "Homo sapiens, LK-2", "description": "SANGER: Inhibition of human LK-2 cell growth in a cell viability assay."}, "A101D": {"test_system": "A101D", "type": "functional, cell-based, Homo sapiens", "conditions": "Homo sapiens, A101D", "description": "SANGER: Inhibition of human A101D cell growth in a cell viability assay."}, "CAMA-1": {"test_system": "CAMA-1", "type": "functional, cell-based, Homo sapiens", "conditions": "Homo sapiens, CAMA-1", "description": "SANGER: Inhibition of human CAMA-1 cell growth in a cell viability assay."}, "EW-24": {"test_system": "EW-24", "type": "functional, cell-based", "conditions": "Homo sapiens", "description": "SANGER: Inhibition of human EW-24 cell growth in a cell viability assay."}, "MDA-MB-415": {"test_system": "MDA-MB-415", "type": "functional, cell-based", "conditions": "Homo sapiens"}, "MKN-28": {"test_system": "MKN-28", "type": "functional, cell-based, Homo sapiens", "conditions": "Homo sapiens, MKN-28", "description": "SANGER: Inhibition of human MKN28 cell growth in a cell viability assay."}, "NY": {"test_system": "NY", "type": "functional, cell-based, Homo sapiens", "conditions": "Homo sapiens, NY", "description": "SANGER: Inhibition of human NY cell growth in a cell viability assay."}, "Becker": {"test_system": "Becker", "type": "functional, cell-based, Homo sapiens", "conditions": "Homo sapiens, Becker", "description": "SANGER: Inhibition of human Becker cell growth in a cell viability assay."}, "SK-N-AS": {"test_system": "SK-N-AS", "type": "functional, cell-based, Homo sapiens", "conditions": "Homo sapiens, SK-N-AS", "description": "SANGER: Inhibition of human SK-N-AS cell growth in a cell viability assay."}, "HOP-62": {"test_system": "HOP-62", "type": "functional, cell-based, Homo sapiens", "conditions": "Homo sapiens, HOP-62", "description": "SANGER: Inhibition of human HOP-62 cell growth in a cell viability assay."}, "CAL-27": {"test_system": "CAL-27", "type": "functional, cell-based, Homo sapiens", "conditions": "Homo sapiens, CAL-27", "description": "SANGER: Inhibition of human CAL-27 cell growth in a cell viability assay."}, "Panc1005": {"test_system": "Panc1005", "type": "functional, cell-based, Homo sapiens", "conditions": "Homo sapiens, Panc1005", "description": "SANGER: Inhibition of human PANC-10-05 cell growth in a cell viability assay."}, "MSTO-211H": {"test_system": "MSTO-211H", "type": "functional, cell-based, Homo sapiens", "conditions": "Homo sapiens, MSTO-211H", "description": "SANGER: Inhibition of human MSTO-211H cell growth in a cell viability assay."}, "UACC-893": {"test_system": "UACC-893", "type": "functional, cell-based, Homo sapiens", "conditions": "Homo sapiens, UACC-893", "description": "SANGER: Inhibition of human UACC-893 cell growth in a cell viability assay."}, "NCI-H69": {"test_system": "NCI-H69", "type": "functional, cell-based", "conditions": "Homo sapiens", "description": "SANGER: Inhibition of human NCI-H69 cell growth in a cell viability assay."}, "NCI-H2342": {"test_system": "NCI-H2342", "type": "functional, cell-based", "conditions": "Homo sapiens", "description": "SANGER: Inhibition of human NCI-H2342 cell growth in a cell viability assay."}, "RPMI-8226": {"test_system": "RPMI-8226", "type": "functional, cell-based", "conditions": "Homo sapiens", "description": "SANGER: Inhibition of human RPMI-8226 cell growth in a cell viability assay."}, "CAPAN-1": {"test_system": "CAPAN-1", "type": "functional, cell-based, Homo sapiens", "conditions": "Homo sapiens, CAPAN-1", "description": "SANGER: Inhibition of human CAPAN-1 cell growth in a cell viability assay."}, "8305C": {"test_system": "8305C", "type": "functional, cell-based, Homo sapiens", "conditions": "Homo sapiens, 8305C", "description": "SANGER: Inhibition of human 8305C cell growth in a cell viability assay."}, "EW-1": {"test_system": "EW-1", "type": "functional, cell-based, Homo sapiens", "conditions": "Homo sapiens, EW-1", "description": "SANGER: Inhibition of human EW-1 cell growth in a cell viability assay."}, "BT-474": {"test_system": "BT-474", "type": "functional, cell-based, Homo sapiens", "conditions": "Homo sapiens, BT-474", "description": "SANGER: Inhibition of human BT-474 cell growth in a cell viability assay."}, "D-247MG": {"test_system": "D-247MG", "type": "functional, cell-based, Homo sapiens", "conditions": "Homo sapiens, D-247MG", "description": "SANGER: Inhibition of human D-247MG cell growth in a cell viability assay."}, "RPMI-2650": {"test_system": "RPMI-2650", "type": "functional, cell-based, Homo sapiens", "conditions": "Homo sapiens, RPMI-2650", "description": "SANGER: Inhibition of human RPMI-2650 cell growth in a cell viability assay."}, "M14": {"test_system": "M14", "type": "functional, cell-based, Homo sapiens", "conditions": "Homo sapiens, M14", "description": "SANGER: Inhibition of human M14 cell growth in a cell viability assay."}, "HCE-4": {"test_system": "HCE-4", "type": "functional, cell-based, Homo sapiens", "conditions": "Homo sapiens, HCE-4", "description": "SANGER: Inhibition of human HCE-4 cell growth in a cell viability assay."}, "DMS-79": {"test_system": "DMS-79", "type": "functional, cell-based", "conditions": "Homo sapiens", "description": "SANGER: Inhibition of human DMS-79 cell growth in a cell viability assay."}, "FaDu": {"test_system": "FaDu", "type": "functional, cell-based, Homo sapiens", "conditions": "Homo sapiens, FaDu", "description": "SANGER: Inhibition of human FADU cell growth in a cell viability assay."}, "SF-539": {"test_system": "SF-539", "type": "functional, cell-based, Homo sapiens", "conditions": "Homo sapiens, SF-539", "description": "SANGER: Inhibition of human SF539 cell growth in a cell viability assay."}, "HN": {"test_system": "HN", "type": "functional, cell-based, Homo sapiens", "conditions": "Homo sapiens, HN", "description": "SANGER: Inhibition of human HN cell growth in a cell viability assay."}, "ES1": {"test_system": "ES1", "type": "functional, cell-based, Homo sapiens", "conditions": "Homo sapiens, ES1", "description": "SANGER: Inhibition of human ES1 cell growth in a cell viability assay."}, "CAS-1": {"test_system": "CAS-1", "type": "functional, cell-based, Homo sapiens", "conditions": "Homo sapiens, CAS-1", "description": "SANGER: Inhibition of human CAS-1 cell growth in a cell viability assay."}, "ABC-1": {"test_system": "ABC-1", "type": "functional, cell-based, Homo sapiens", "conditions": "Homo sapiens, ABC-1", "description": "SANGER: Inhibition of human ABC-1 cell growth in a cell viability assay."}, "NCI-H2347": {"test_system": "NCI-H2347", "type": "functional, cell-based, Homo sapiens", "conditions": "Homo sapiens, NCI-H2347", "description": "SANGER: Inhibition of human NCI-H2347 cell growth in a cell viability assay."}, "NCI-H720": {"test_system": "NCI-H720", "type": "functional, cell-based", "conditions": "Homo sapiens", "description": "SANGER: Inhibition of human NCI-H720 cell growth in a cell viability assay."}, "LS-123": {"test_system": "LS-123", "type": "functional, cell-based, Homo sapiens", "conditions": "Homo sapiens, LS-123", "description": "SANGER: Inhibition of human LS-123 cell growth in a cell viability assay."}, "SK-UT-1": {"test_system": "SK-UT-1", "type": "functional, cell-based, Homo sapiens", "conditions": "Homo sapiens, SK-UT-1", "description": "SANGER: Inhibition of human SK-UT-1 cell growth in a cell viability assay."}, "U-266": {"test_system": "U-266", "type": "functional, cell-based", "conditions": "Homo sapiens", "description": "SANGER: Inhibition of human U-266 cell growth in a cell viability assay."}, "SCC-4": {"test_system": "SCC-4", "type": "functional, cell-based, Homo sapiens", "conditions": "Homo sapiens, SCC-4", "description": "SANGER: Inhibition of human SCC-4 cell growth in a cell viability assay."}, "SW982": {"test_system": "SW982", "type": "functional, cell-based", "conditions": "Homo sapiens", "description": "SANGER: Inhibition of human SW982 cell growth in a cell viability assay."}, "AGS": {"test_system": "AGS", "type": "functional, cell-based, Homo sapiens", "conditions": "Homo sapiens, AGS", "description": "SANGER: Inhibition of human AGS cell growth in a cell viability assay."}, "SK-N-FI": {"test_system": "SK-N-FI", "type": "functional, cell-based, Homo sapiens", "conditions": "Homo sapiens, SK-N-FI", "description": "SANGER: Inhibition of human SK-N-FI cell growth in a cell viability assay."}, "LB771-HNC": {"test_system": "LB771-HNC", "type": "functional, cell-based, Homo sapiens", "conditions": "Homo sapiens, LB771-HNC", "description": "SANGER: Inhibition of human LB771-HNC cell growth in a cell viability assay."}, "HuCCT-1": {"test_system": "HuCCT-1", "type": "functional, cell-based, Homo sapiens, HuCCT1", "conditions": "Homo sapiens, HuCCT-1", "description": "SANGER: Inhibition of human HuCCT1 cell growth in a cell viability assay."}, "JVM-2": {"test_system": "JVM-2", "type": "functional, cell-based", "conditions": "Homo sapiens", "description": "SANGER: Inhibition of human JVM-2 cell growth in a cell viability assay."}, "NB14": {"test_system": "NB14", "type": "functional, cell-based", "conditions": "Homo sapiens", "description": "SANGER: Inhibition of human NB14 cell growth in a cell viability assay."}, "HCC2218": {"test_system": "HCC2218", "type": "functional, cell-based", "conditions": "Homo sapiens", "description": "SANGER: Inhibition of human HCC2218 cell growth in a cell viability assay."}, "P12-Ichikawa": {"test_system": "P12-Ichikawa", "type": "functional, cell-based", "conditions": "Homo sapiens"}}, "data": [{"smiles": "Nc1ccn([C@@H]2O[C@H](CO)[C@@H](O)[C@@H]2O)c(=O)n1", "note": "[CYTARABINE]", "values": [{"measurement": "IC50", "setting": "T84", "value": "> 2000", "unit": "nM"}, {"measurement": "IC50", "setting": "HCC1187", "value": "> 2000", "unit": "nM"}, {"measurement": "IC50", "setting": "RPMI-7951", "value": 340, "unit": "nM"}, {"measurement": "IC50", "setting": "AU565", "value": "> 2000", "unit": "nM"}, {"measurement": "IC50", "setting": "RO82-W-1", "value": "> 2000", "unit": "nM"}, {"measurement": "IC50", "setting": "LK-2", "value": 461, "unit": "nM"}, {"measurement": "IC50", "setting": "A101D", "value": "> 2000", "unit": "nM"}, {"measurement": "IC50", "setting": "CAMA-1", "value": "> 2000", "unit": "nM"}, {"measurement": "IC50", "setting": "EW-24", "value": 794, "unit": "nM"}, {"measurement": "IC50", "setting": "MDA-MB-415", "value": "> 2000", "unit": "nM"}, {"measurement": "IC50", "setting": "MKN-28", "value": "> 2000", "unit": "nM"}, {"measurement": "IC50", "setting": "NY", "value": "> 2000", "unit": "nM"}, {"measurement": "IC50", "setting": "Becker", "value": 1100, "unit": "nM"}, {"measurement": "IC50", "setting": "SK-N-AS", "value": 450, "unit": "nM"}, {"measurement": "IC50", "setting": "HOP-62", "value": "> 2000", "unit": "nM"}, {"measurement": "IC50", "setting": "CAL-27", "value": 1930, "unit": "nM"}, {"measurement": "IC50", "setting": "Panc1005", "value": 802, "unit": "nM"}, {"measurement": "IC50", "setting": "MSTO-211H", "value": 324, "unit": "nM"}, {"measurement": "IC50", "setting": "UACC-893", "value": "> 2000", "unit": "nM"}, {"measurement": "IC50", "setting": "NCI-H69", "value": "> 2000", "unit": "nM"}, {"measurement": "IC50", "setting": "NCI-H2342", "value": "> 2000", "unit": "nM"}, {"measurement": "IC50", "setting": "RPMI-8226", "value": "> 2000", "unit": "nM"}, {"measurement": "IC50", "setting": "CAPAN-1", "value": "> 2000", "unit": "nM"}, {"measurement": "IC50", "setting": "8305C", "value": "> 2000", "unit": "nM"}, {"measurement": "IC50", "setting": "EW-1", "value": 139, "unit": "nM"}, {"measurement": "IC50", "setting": "BT-474", "value": "> 2000", "unit": "nM"}, {"measurement": "IC50", "setting": "D-247MG", "value": 1090, "unit": "nM"}, {"measurement": "IC50", "setting": "RPMI-2650", "value": 401, "unit": "nM"}, {"measurement": "IC50", "setting": "M14", "value": 632, "unit": "nM"}, {"measurement": "IC50", "setting": "HCE-4", "value": 277, "unit": "nM"}, {"measurement": "IC50", "setting": "DMS-79", "value": "> 2000", "unit": "nM"}, {"measurement": "IC50", "setting": "FaDu", "value": "> 2000", "unit": "nM"}, {"measurement": "IC50", "setting": "SF-539", "value": 717, "unit": "nM"}, {"measurement": "IC50", "setting": "HN", "value": 221, "unit": "nM"}, {"measurement": "IC50", "setting": "ES1", "value": 13, "unit": "nM"}, {"measurement": "IC50", "setting": "CAS-1", "value": "> 2000", "unit": "nM"}, {"measurement": "IC50", "setting": "ABC-1", "value": 1520, "unit": "nM"}, {"measurement": "IC50", "setting": "NCI-H2347", "value": "> 2000", "unit": "nM"}, {"measurement": "IC50", "setting": "NCI-H720", "value": "> 2000", "unit": "nM"}, {"measurement": "IC50", "setting": "LS-123", "value": "> 2000", "unit": "nM"}, {"measurement": "IC50", "setting": "SK-UT-1", "value": 181, "unit": "nM"}, {"measurement": "IC50", "setting": "U-266", "value": "> 2000", "unit": "nM"}, {"measurement": "IC50", "setting": "SCC-4", "value": 965, "unit": "nM"}, {"measurement": "IC50", "setting": "SW982", "value": 91.2, "unit": "nM"}, {"measurement": "IC50", "setting": "AGS", "value": 918, "unit": "nM"}, {"measurement": "IC50", "setting": "SK-N-FI", "value": "> 2000", "unit": "nM"}, {"measurement": "IC50", "setting": "LB771-HNC", "value": "> 2000", "unit": "nM"}, {"measurement": "IC50", "setting": "HuCCT-1", "value": "> 2000", "unit": "nM"}, {"measurement": "IC50", "setting": "JVM-2", "value": "> 2000", "unit": "nM"}, {"measurement": "IC50", "setting": "NB14", "value": 310, "unit": "nM"}, {"measurement": "IC50", "setting": "HCC2218", "value": "> 2000", "unit": "nM"}, {"measurement": "IC50", "setting": "P12-Ichikawa", "value": 5.54, "unit": "nM"}]}]}
